Data on one molecule can be found in patent US20060167270A1, “5-substituted 2h-pyrazone-3-carbixylic acid derivatives as antilipolytic agents for the treatment of metabolic-related disorders such as dyslipidemia” (Arena Pharmaceuticals Inc., priority 2002, published 2006).

The structures appear in SMILES notation.

The assay addresses T1, hRUP25 (Homo sapiens, UniProt Q8TDS4).
T1 construct: expressed in transfected cells; host or cells: CHO cells, stably transfected
The assay is described as follows: cAMP Whole Cell assay (Flash Plate Adenylyl Cyclase kit) in CHO cells stably transfected with hRUP25. The format is cell-based. As to conditions: CHO cells stably expressing hRUP25; average of two (2) trials. An excerpt: A modified Flash Plate™ Adenylyl Cyclase kit (New England Nuclear, Cat. No. SMP004A) was utilized for direct identification of candidate compounds as agonists to hRUP25 (Seq. Id. Nos. 1 & 2) in accordance with the following protocol:
CHO cells stably transfected with an expression vector encoding hRUP25 and cultured under condition permissive for cell surface expression of the encoded hRUP25 receptor were harvested from flasks via non-enzymatic means. The cells were washed in PBS and resuspended in the manufacturer's Assay Buffer. Live cells were counted using a hemacytometer and Trypan blue exclusion, and the cell concentration was adjusted to 2×10^6 cells/ml. cAMP standards and Detection Buffer (comprising 2 μCi of tracer [^125I]-cAMP (100 μl) to 11 ml Detection Buffer) were prepared and maintained in accordance with the manufacturer's instructions. Candidate compounds identified as per above (if frozen, thawed at room temperature) were added to their respective wells (preferably wells of a 96-well plate) at increasing concentrations (3 μl/well; 12 μM final assay concentration). […] Plates were counted in a Wallac MicroBeta™ plate reader using “Prot. #31” (as per manufacturer instructions).
The biological in vitro activity was determined using the cAMP Whole Cell method, one representative example is shown in the table below: […]

T1 sequence (Q8TDS4 whole entry): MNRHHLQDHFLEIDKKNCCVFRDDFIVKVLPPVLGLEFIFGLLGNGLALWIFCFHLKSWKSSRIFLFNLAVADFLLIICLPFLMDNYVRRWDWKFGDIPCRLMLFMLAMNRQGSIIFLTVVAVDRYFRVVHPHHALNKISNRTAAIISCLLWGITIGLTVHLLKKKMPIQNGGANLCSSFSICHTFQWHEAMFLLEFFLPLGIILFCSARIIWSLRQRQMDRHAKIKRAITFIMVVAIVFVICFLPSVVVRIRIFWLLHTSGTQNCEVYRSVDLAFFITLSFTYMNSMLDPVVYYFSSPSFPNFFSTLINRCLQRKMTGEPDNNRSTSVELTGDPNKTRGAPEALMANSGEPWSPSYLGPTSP

By IC50 is commonly meant the midpoint of a concentration-inhibition curve. Higher therefore signals weaker potency in that assay. `CCCCc1[nH]nc(C(=O)O)c1F` [Compound 8, 5-Butyl-4-fluoro-1H-pyrazole-3-carboxylic acid] gave an IC50 of 900 nM.
